Tested on: KRAS-mutant PDC tumor spheroid with HUVEC/MSC, viability
Experiment: Anticancer human tumor 327498-153-R-J2-PDC patient-derived uterine carcinosarcoma cell line growth inhibition [KRAS2]
Conditions: for viability, T/C: stronger effect = lower value
From the text: Multicellular complex tumor spheroid response to RAS pathway inhibitors in combination with a targeted agents in patient-derived cell lines with oncogenic KRAS variants from multiple cancer types
A high-throughput screen of multi-cell type tumor spheroids was designed to identify active combinations of targeted small molecules and KRAS pathway inhibitors. Complex spheroids include a stromal component modeled by human endothelial cells (HUVEC) and fibroblasts modeled by human mesenchymal stem cells (MSCs). The concentration ranges selected for each drug and investigational agent were based upon clinically achievable concentrations if the clinical Cmax of the agent was known.
Compounds. The drugs and investigational agents: BI-3406 (NSC825286), BAY-293 (NSC824723), batoprotafib (TNO155; NSC825523), sotorasib (AMG 510; NSC818433), MRTX1257 (NSC819558), elimusertib (BAY 1895344; NSC800525), molibresib (GSK525762; NSC774829), temuterkib (LY3214996; NSC803410), venetoclax (NSC766270), alisertib (NSC759677), olaparib (NSC753686), talazoparib (NSC767125), erdafitinib (NSC781556), ipatasertib (NSC767898), cabozantinib (NSC761068), nintedanib (NSC756659), abemaciclib (NSC768073), docetaxel (NSC628503), trametinib (NSC758246), and sapanisertib (NSC764658) were obtained from the National Cancer Institute (NCI) Developmental Therapeutics Program Chemical Repository. The FDA-approved anticancer drug set is available from the Developmental Therapeutics Program. […] The stock solutions were prepared in dimethyl sulfoxide (DMSO, Sigma-Aldrich, St. Louis, MO, cat. D2650) at 800-fold the tested concentration and stored at -70 degrees C prior to their use. All drugs and investigational agents were tested over a range starting from a high concentration at or near the clinical Cmax and decreasing in half-log increments. If the clinical Cmax for an agent had not been determined, the highest concentration tested was 10 microM.
Cell Culture. All cells were maintained in an incubator at 37 degrees C and 5% CO2 with 95% humidity. The PDC lines were cultured according to standard operating procedures established by the NCI PDMR (https://pdmr.cancer.gov/sops/default.htm). Briefly, all PDCs were thawed and cultured in Matrigel-coated flasks prepared with a working solution of 1X Ham's F-12 nutrient mix, without supplementation (Invitrogen, Waltham, MA, cat. 11765054), 100 U/mL penicillin-streptomycin (Invitrogen, cat. 15140122), and 2.5% Matrigel (Corning Inc., Corning, NY, cat. 354248) for the first three passages. All PDCs were cultured in complete DMEM/F-12 media containing advanced DMEM/F-12 (Invitrogen, cat. 12634028), 4.9% defined fetal bovine serum, heat inactivated (HyClone Laboratories Inc., Logan, UT, cat. SH30070.03HI), 389 ng/mL hydrocortisone (Sigma-Aldrich, cat. H4001), 9.7 ng/mL human EGF recombinant protein (Invitrogen, cat. PHG0313), 23.4 microg/mL adenine (Sigma-Aldrich, cat. A2786), 97.3 U/mL penicillin-streptomycin (Invitrogen, cat. 15140122), 1.9 mM L-glutamine (Invitrogen, cat. 25030081), and 9.7 microM Y-27632 dihydrochloride (Tocris Bioscience, Bristol, United Kingdom, cat. 1254). The PDCs were cultured in complete DMEM/F12 media without 9.7 microM Y-27632 dihydrochloride for at least two passages prior to the screen. The established cell line HOP-62 was cultured in RPMI 1640 medium, HEPES (Invitrogen, cat. 22400105) with 10% defined fetal bovine serum (HyClone Laboratories Inc., cat. SH30070.03) and 2 mM L-glutamine (Invitrogen, cat. 25030081). The pooled donor HUVEC were cultured in endothelial cell growth medium 2 (PromoCell, Heidelberg, Germany, cat. C-22011) and the hMSC were cultured in mesenchymal stem cell growth medium 2 (PromoCell, cat. C-28009). For all experiments, HUVEC and hMSC were used at passages </=5, while the malignant cell lines were used at passages </=15. […]

[1] = curve of first compound, second compound 0.1 µM
[2] = curve of first compound, second compound 0.316 µM
[3] = curve of first compound, second compound 1 µM
[4] = curve of first compound, second compound 3.16 µM
[5] = curve of first compound, second compound 10 µM
[6] = second compound 0.1 µM, first compound 0.0316 µM
[7] = second compound 0.1 µM, first compound 0.1 µM
[8] = second compound 0.1 µM, first compound 0.316 µM
[9] = second compound 0.1 µM, first compound 1 µM
[10] = second compound 0.1 µM, first compound 3.16 µM
[11] = second compound 0.1 µM, first compound 10 µM
[12] = second compound 0.316 µM, first compound 0.0316 µM
[13] = second compound 0.316 µM, first compound 0.1 µM
[14] = second compound 0.316 µM, first compound 0.316 µM
[15] = second compound 0.316 µM, first compound 1 µM
[16] = second compound 0.316 µM, first compound 3.16 µM
[17] = second compound 0.316 µM, first compound 10 µM
[18] = second compound 1 µM, first compound 0.0316 µM
[19] = second compound 1 µM, first compound 0.1 µM
[20] = second compound 1 µM, first compound 0.316 µM
[21] = second compound 1 µM, first compound 1 µM
[22] = second compound 1 µM, first compound 3.16 µM
[23] = second compound 1 µM, first compound 10 µM
[24] = second compound 3.16 µM, first compound 0.0316 µM
[25] = second compound 3.16 µM, first compound 0.1 µM
[26] = second compound 3.16 µM, first compound 0.316 µM
[27] = second compound 3.16 µM, first compound 1 µM
[28] = second compound 3.16 µM, first compound 3.16 µM
[29] = second compound 3.16 µM, first compound 10 µM
[30] = second compound 10 µM, first compound 0.0316 µM
[31] = second compound 10 µM, first compound 0.1 µM
[32] = second compound 10 µM, first compound 0.316 µM
[33] = second compound 10 µM, first compound 1 µM
[34] = second compound 10 µM, first compound 3.16 µM
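Also: spheroids exposed to agents for seven days before reading.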
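For viability, T/C in this document: 100% = DMSO vehicle wells so lower means fewer viable cells.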

Structure (SMILES)	IC50 [1]	IC50 [2]	IC50 [3]	IC50 [4]	viability, T/C [6]	viability, T/C [7]	viability, T/C [8]	viability, T/C [9]	viability, T/C [10]	viability, T/C [12]	viability, T/C [13]	viability, T/C [14]	viability, T/C [15]	viability, T/C [16]	viability, T/C [18]	viability, T/C [19]	viability, T/C [20]	viability, T/C [21]	viability, T/C [22]	viability, T/C [24]	further results
O=C(c1cc(Cc2n[nH]c(=O)c3ccccc23)ccc1F)N1CCN(C(=O)C2CC2)CC1 + CC1OCC2(CCN(c3cnc(Sc4ccnc(N)c4Cl)c(N)n3)CC2)C1N	1660 nM	1080 nM	242 nM	< 31.6 nM	81.3%	83.8%	75%	62.6%	34.8%	70.4%	68.6%	62.6%	52.2%	31.7%	104%	60.7%	44.2%	40.9%	21.9%	40.5%	IC50 [5]: < 31.6 nM; viability, T/C [11]: 19.4%; viability, T/C [17]: 17.5%; viability, T/C [23]: 14.2%; viability, T/C [25]: 37.6%; viability, T/C [26]: 38.1%; viability, T/C [27]: 28.7%; viability, T/C [28]: 17.9%; viability, T/C [29]: 13.8%; viability, T/C [30]: 36.7%; viability, T/C [31]: 31.8%; viability, T/C [32]: 27.1%; viability, T/C [33]: 25.3%; viability, T/C [34]: 15.9%; viability, T/C (second compound 10 µM, first compound 10 µM): 11.4%
CC1(C)CCC(CN2CCN(c3ccc(C(=O)NS(=O)(=O)c4ccc(NCC5CCOCC5)c([N+](=O)[O-])c4)c(Oc4cnc5[nH]ccc5c4)c3)CC2)=C(c2ccc(Cl)cc2)C1 + C=CC(=O)N1CCN(c2nc(OCC3CCCN3C)nc3c2CCN(c2cccc4cccc(C)c24)C3)CC1CC#N	1650 nM	1100 nM	< 31.6 nM	< 31.6 nM	56.8%	59.2%	52%	53%	45.9%	48.7%	49%	58.4%	52.2%	27.3%	44.5%	44.1%	44.9%	48%	18.5%	1.15%	IC50 (curve of first compound, second compound 0.0316 µM): 1990 nM; viability, T/C (second compound 0.0316 µM, first compound 0.0316 µM): 70.1%; viability, T/C (second compound 0.0316 µM, first compound 0.1 µM): 66.6%; viability, T/C (second compound 0.0316 µM, first compound 0.316 µM): 72.7%; viability, T/C (second compound 0.0316 µM, first compound 1 µM): 63.8%; viability, T/C (second compound 0.0316 µM, first compound 3.16 µM): 40.2%; viability, T/C (second compound 0.0316 µM, first compound 10 µM): 8.7%; viability, T/C [11]: 12.1%; viability, T/C [17]: 1.57%; viability, T/C [23]: 0.31%; viability, T/C [25]: 1.18%; viability, T/C [26]: 0.54%; viability, T/C [27]: 0.45%; viability, T/C [28]: 1.03%; viability, T/C [29]: 0.39%
CC(=O)OC12COC1CC(O)C1(C)C(=O)C(O)C3=C(C)C(OC(=O)C(O)C(NC(=O)OC(C)(C)C)c4ccccc4)CC(O)(C(OC(=O)c4ccccc4)C21)C3(C)C (configuration not stated) + COc1cc2nc(C)nc(NC(C)c3cc(N)cc(C(F)(F)F)c3)c2cc1OC1CCOC1	< 10 nM	< 10 nM	< 10 nM	< 10 nM	6.47%	7.11%	7.15%	9.33%	13.3%	5.72%	6.66%	6.34%	9.71%	13.2%	5.99%	6.32%	6.76%	8.86%	11.6%	5.59%	IC50 [5]: < 10 nM; viability, T/C (second compound 0.1 µM, first compound 0.01 µM): 8.2%; viability, T/C (second compound 0.316 µM, first compound 0.01 µM): 7.68%; viability, T/C (second compound 1 µM, first compound 0.01 µM): 7.84%; viability, T/C (second compound 3.16 µM, first compound 0.01 µM): 10.3%; viability, T/C [25]: 6.6%; viability, T/C [26]: 6.36%; viability, T/C [27]: 9.6%; viability, T/C [28]: 12.6%; viability, T/C (second compound 10 µM, first compound 0.01 µM): 6.87%; viability, T/C [30]: 6.05%; viability, T/C [31]: 7.37%; viability, T/C [32]: 9.15%; viability, T/C [33]: 13.1%; viability, T/C [34]: 11.8%
COc1cc(Nc2ncc3c(n2)-c2ccc(Cl)cc2C(c2c(F)cccc2OC)=NC3)ccc1C(=O)O																					viability, T/C (compound 0.0316 µM): 19.4% [middle of 5 runs]; viability, T/C (compound 0.1 µM): 13.1% [middle of 5 runs]; viability, T/C (compound 0.316 µM): 11.2% [middle of 5 runs]; viability, T/C (compound 1 µM): 12.1% [middle of 5 runs]; viability, T/C (compound 3.16 µM): 12.5% [middle of 5 runs]; viability, T/C (compound 10 µM): 14.5% [middle of 5 runs]; IC50 (curve of compound): < 31.6 nM

Source: PubChem BioAssay AID1963867 (Molecular Pharmacology Branch, DTP, NCI, 2024)
